Assays:
ErbB3 in Hep3Bx cells = test: siRNA silencing of ErbB3 (FIG. 12a); type: cell-based
Description: (§1) 5 μL of 20 μM siRNA is mixed with 1 μL of the transfection reagent and 100 μL of the medium without FBS. 30 minutes later, the siRNA-containing mixture is added into the medium-discarded Hep3Bx cells with a final volume of 1 mL. After incubating for 5 hours, the FBS containing medium as added to a final volume of 2 mL. The following experiment is performed 4-day posttransfection.
(§2) ErbB3-specific siRNA with a sequence as set forth in SEQ ID NO: 13 is used to silence expression of ErbB3 in the Hep3Bx cells. The control siRNA with a sequence as set forth in SEQ ID NO: 10 is used as a control.

HBx in Hep3Bx cells = test: siRNA silencing of HBx, Western blotting (FIG. 9e); type: cell-based; details: 4-day posttransfection
Description: HBx-specific siRNA with a sequence as set forth in SEQ ID NO: 9 and a control siRNA with a sequence as set forth in SEQ ID NO: 10 are used to further confirm the relationship between HBx and ErbB3 in the Hep3Bx cells.
as §1

Hep3B cells [1] = test: MTT cytotoxicity assay; type: cell-based; details: 72 hours, 0-10 μM
Description: (§3) In the following trials, liver cancer cells including Hep3B, Hep3Bx, HepG2 and HepG2x cells are used. The Hep3Bx and HepG2x cells, derived from the Hep3B and HepG2 cells, respectively, are cell lines constitutively expressing HBx. All of the liver cancer cells are incubated in a 37° C. incubator. DME/F12 with 10% FBS is used as media for incubating the cell lines. Moreover, lapatinib is dissolved in DMSO with different concentration.
(§4) Cytotoxicity of lapatinib to the Hep3B and Hep3Bx cells is monitored using the MTT 3-(4,5-dimethylthiazol-2-yl)-2,5-diphenyltetrazolium bromide assay. First, the Hep3B and Hep3Bx cells are inoculated in a 96-well pate with 5,000-10,000 cells per well. After incubating at 37° C. for 24 hours, 0, 0.1, 0.5, 1, 5 and 10 μM of lapatinib is added into the medium for further incubation at 37° C. for 72 hours, respectively. 0.025 mL of MTT solution ([…] of MTT dissolved in 1 mL of 1×PBS) is added into 0.1 mL of the medium, followed by incubating at 37° C. for 4 hours. Succinate dehydrogenase, bound to the inner mitochondrial membrane of the living cells, is capable of reducing MTT to its insoluble formazan, which has a purple color. Therefore, after removing the supernatants, 0.1 mL of DMSO is added to dissolve the insoluble formazan into a colored solution.

Hep3Bx cells [2] = test: MTT cytotoxicity assay; type: cell-based; details: 72 hours, 0-10 μM
Description: as §3, §4

Hep3B cells [3] = test: sub-G1 phase arrest by PI flow cytometry; type: cell-based; details: 120 hours, different concentrations
Description: (§5) The Hep3B and Hep3Bx cells are inoculated in 3.5-cm petri dishes, respectively. After the Hep3B and Hep3Bx cells cover 50 to 60% of the 3.5-cm petri dishes, 3 mL of fresh medium with different concentrations of lapatinib is added, followed by incubation at 37° C. for 120 hours. The cultured Hep3B and Hep3Bx cells are resuspended in 3 mL of 75% ethanol in a concentration of 1.5×10^5 cells per mL and fixed at −20° C. for at least 2 hours. Finally, the fixed Hep3B and Hep3Bx cells are mixed with 0.5 mL of PI buffer at 37° C. for 30 minutes. The sub-G1 phase arresting cells with a DNA content less than 2n, which are usually the result of apoptotic DNA fragmentation are detected and measured by a sub-G1 peak in the fluorescence histogram of flow cytometry.

Hep3Bx cells [4] = test: sub-G1 phase arrest by PI flow cytometry; type: cell-based; details: 120 hours, different concentrations
Description: as §5

Hep3B cells [5] = test: Western blotting of cleaved PARP and cleaved Caspase-3; type: cell-based
Description: (§6) Western blotting is performed with anti-PARP antibody (1: 1,000, purchased from Cell Signaling) and anti-Caspase-3 antibody (1: 1,000, purchased from Cell Signaling). The anti-Actin antibody (1: 10,000, purchased from Sigma) is used as an internal control.

Hep3Bx cells [6] = test: as above; type: cell-based; details: higher concentration
Description: as §6

[7] = tested on: vector-transfected Hep3B cells (group D1); test: cell viability after lapatinib treatment (FIG. 4b); type: cell-based
[8] = tested on: myc-HBx-transfected Hep3B cells (group D2); test: cell viability after lapatinib treatment (FIG. 4b); type: cell-based
Description: (§7) In the trial (D) and (E), HBx is introduced into the Hep3B cells via transient transfection and virus transduction, respectively. Cytotoxicity of lapatinib to the HBx-transfected or HBx-virus transduced Hep3B cells is further monitored by the crystal violet assay.
That is, pcDNA6/myc-His A vector is used as a control (group D1) and the C-terminal myc-tagged HBx plasmid expressing myc-HBx expression protein constructed with primers with sequences set forth in SEQ ID NOs. 5 and 6 is used as the group D2.
(§8) The plasmids are transfected into the Hep3B cells as the following procedure: 1 μg of the plasmids are mixed with 1 μL of TransIT2020 transfection reagent, and the mixture is incubated with the fresh medium without FBS at room temperature for 30 minutes to obtain the vector-transfected Hep3B cells (group D1) and the myc-HBx-transfected Hep3B cells (group D2).

[9] = tested on: vector-transfected Hep3B cells (group D1); test: crystal violet staining (FIG. 4c); type: cell-based; details: 1 μM, 120 hours
[10] = tested on: myc-HBx-transfected Hep3B cells (group D2); test: crystal violet staining (FIG. 4c); type: cell-based; details: 1 μM, 120 hours
Description: as §8
Moreover, 1×10^5 cells of the vector-transfected Hep3B cells (group D1) and the myc-HBx-transfected Hep3B cells (group D2) are further treated with 1 μM of lapatinib. Also, DMSO is used to treat the vector-transfected Hep3B cells (group D1) and the myc-HBx-transfected Hep3B cells (group D2) as a solvent control. After culturing at 37° C. for 120 hours, the supernatants are removed and 10 mg/mL of crystal violet solution dissolving in 30% ethanol is added to the cultured Hep3B cells for 15 to 30 minutes. Crystal violet solution can stain the nuclei of the living cells adhering to the petri dishes.

[11] = tested on: HBx-virus transduced Hep3B cells (group E2); test: cell viability after lapatinib treatment (FIG. 5b); type: cell-based
Description: as §7
(§9) That is, pDEST-V5 vector is used as a control (group E1) and the HBx plasmid expressing HBx expression protein constructed with primers with sequences set forth in SEQ ID NOs. 7 and 8 is used as the group E2.
(§10) The plasmids are virus transduced into the Hep3B cells as the following procedure: the Hep3B cells are inoculated in 3.5-cm petri dishes with concentration of 2×10^5 cells per petri dish. After incubating for 24 hours, virus with 100 MOI is used to transduce the plasmids into the cultured Hep3B cells. Fresh media are replaced after 16 hours and the following experiments are performed 4 days later.

[12] = tested on: vector-virus transduced Hep3B cells (group E1); test: cell viability after lapatinib treatment (FIG. 5b); type: cell-based
Description: as §7, §9, §10

[13] = tested on: HBx-minus mutant-transfected Hep3B cells (group F3); test: crystal violet assay (FIG. 6c); details: 1 μM, 120 hours
Description: (§11) The genome of HBV contains 4 known genes including genes C, X, P and S. To define the role of HBx in cytotoxicity of lapatinib to liver cancer, the plasmids being thankful presents from Dr. Seishi Murakami (J. Virology, 79 (9): 5548-5556, 2005) are used to transiently transfect into the Hep3B cells in the trial (F). […] The plasmid containing an ochre termination signal (CAA to UAA) after codon 7 (at codon 8) in the HBx ORF is used as the group F3. The plasmids are transiently transfected into the Hep3B and HepG2 cells as described above.
(§12) The transfected Hep3B and HepG2 cells are treated with DMSO or 1 μM of lapatinib for 120 hours and the DMSO- or lapatinib-treated cells are analyzed by crystal violet assay.

[14] = tested on: HBx-minus mutant-transfected HepG2 cells (group F3); test: crystal violet assay (FIG. 6c); details: 1 μM, 120 hours
Description: as §11, §12

[15] = tested on: vector-transfected Hep3B cells (group F1); test: crystal violet assay (FIG. 6c); details: 1 μM, 120 hours
Description: as §11, §12

[16] = tested on: vector-transfected HepG2 cells (group F1); test: crystal violet assay (FIG. 6c); details: 1 μM, 120 hours
Description: as §11, §12

[17] = tested on: wild-type HBV genome-transfected Hep3B cells (group F2); test: crystal violet assay (FIG. 6c); details: 1 μM, 120 hours
Description: as §11, §12

[18] = tested on: wild-type HBV genome-transfected HepG2 cells (group F2); test: crystal violet assay (FIG. 6c); details: 1 μM, 120 hours
Description: as §11, §12

[19] = tested on: ErbB3-transfected Hep3B cells (group K2); test: cell numbers by light and fluorescence microscopy (FIG. 11b-d); type: cell-based; details: 120 hours
Description: That is, pDSRed vector is used as a control (group K1) and the ErbB3 protein-expressing plasmid constructed with primers with sequences set forth in SEQ ID NOs. 11 and 12 is used as the group K2.
Cell numbers of the vector- or ErbB3-transfected Hep3B cells are monitored using a fluorescence microscope with an excitation wavelength of 535 nm. […] The cell number of the lapatinib-treated vector-transfected Hep3B cells divides by the cell number of the DMSO-treated vector-transfected Hep3B cells and the cell number of the lapatinib-treated ErbB3-transfected Hep3B cells divides by the cell number of the DMSO-treated ErbB3-transfected Hep3B cells. As a result, after lapatinib treatment for 120 hours, the quantitative cell viability of ErbB3-transfected Hep3B cells is merely smaller than 20%. That is, ErbB3 transfection induces […] of Hep3B cells to lapatinib.

[20] = tested on: ErbB3-specific siRNA-treated Hep3Bx cells; test: crystal violet staining (FIG. 12b); type: cell-based; details: ErbB3-specific siRNA-treated Hep3Bx cells compared to control siRNA-treated, 120 hours
Description: as §1, §2

liver cancers = details: clinical trial; cited from earlier work

## ErbB3-specific siRNA: ErbB3-specific siRNA with a sequence as set forth in SEQ ID NO: 13 (GCGATGCTGAGAACCAATA; listed as DNA, chemistry not given here)
ErbB3 in Hep3Bx cells
  mRNA level of ErbB3: decreases mRNA level of ErbB3
  protein level of ErbB3: decreased protein level of ErbB3

## HBx-specific siRNA: HBx-specific siRNA with a sequence as set forth in SEQ ID NO: 9 (GGTTAAAGGTCTTTGTATT; listed as DNA, chemistry not given here)
HBx in Hep3Bx cells
  protein level of ErbB3: decreased protein level of ErbB3
  protein level of HBx: decreases protein level of HBx

## CS(=O)(=O)CCNCc1ccc(-c2ccc3ncnc(Nc4ccc(OCc5cccc(F)c5)c(Cl)c4)c3c2)o1 [lapatinib]
Hep3B cells [1]
  lapatinib concentration at which cells show intolerance: more than 5 μM
Hep3Bx cells [2]
  lapatinib concentration at which cells show intolerance: more than 0.1 μM
Hep3B cells [3]
  sub-G1 phase arrest: does not trigger sub-G1 phase arrest
Hep3Bx cells [4]
  sub-G1 phase arrest: the higher the treating concentration is, the more sub-G1 phase arresting cells are observed
Hep3B cells [5]
  level of cleaved PARP and cleaved Caspase-3: does not increase the level of cleaved PARP and cleaved Caspase-3
Hep3Bx cells [6]
  level of cleaved PARP and cleaved Caspase-3: higher level of cleaved PARP and cleaved Caspase-3
[7]
  concentration at which lapatinib shows cytotoxicity: 5000 nM
[8]
  concentration at which lapatinib shows cytotoxicity: 1000 nM
[9]
  cytotoxicity (crystal violet staining): slight cytotoxicity
[10]
  cytotoxicity (crystal violet staining): significant cytotoxicity
[11]
  cells survival: about 60%
  cytotoxicity: significant cytotoxicity
[12]
  cytotoxicity: no cytotoxicity
[13]
  cytotoxicity (crystal violet assay): no cytotoxicity
[14]
  cytotoxicity (crystal violet assay): slight cytotoxicity
[15]
  cytotoxicity (crystal violet assay): no cytotoxicity
[16]
  cytotoxicity (crystal violet assay): slight cytotoxicity
[17]
  cytotoxicity (crystal violet assay): obvious cytotoxicity
[18]
  cytotoxicity (crystal violet assay): significant cytotoxicity
[19]; ErbB3-transfected Hep3B cells (group K2), in comparison to vector-transfected cells
  cell numbers (light microscopy): reduction of cell numbers
[19]; ErbB3-transfected Hep3B cells, lapatinib-treated cell number divided by DMSO-treated cell number, fluorescence microscope
  quantitative cell viability: smaller than 20%
[20]
  tolerance to lapatinib (crystal violet staining): intolerance to lapatinib
Liver cancers
  effectiveness in patients with liver cancers: effective for only part of patients with liver cancers

Source: patent US9790563B2, “Method for treating liver cancer” (priority 2014, dated 2017)
